Data from ChEMBL document CHEMBL1909046, “DrugMatrix in vitro pharmacology data”.

Key:
[1] = molecular target: T1, Cholecystokinin receptor type A (Homo sapiens, UniProt P32238); assay type: cell membranes, Membrane; details: 1321-n1; also: in other assays of this panel Not Active means under 50% inhibition at 10 µM
T1 sequence (P32238 whole entry): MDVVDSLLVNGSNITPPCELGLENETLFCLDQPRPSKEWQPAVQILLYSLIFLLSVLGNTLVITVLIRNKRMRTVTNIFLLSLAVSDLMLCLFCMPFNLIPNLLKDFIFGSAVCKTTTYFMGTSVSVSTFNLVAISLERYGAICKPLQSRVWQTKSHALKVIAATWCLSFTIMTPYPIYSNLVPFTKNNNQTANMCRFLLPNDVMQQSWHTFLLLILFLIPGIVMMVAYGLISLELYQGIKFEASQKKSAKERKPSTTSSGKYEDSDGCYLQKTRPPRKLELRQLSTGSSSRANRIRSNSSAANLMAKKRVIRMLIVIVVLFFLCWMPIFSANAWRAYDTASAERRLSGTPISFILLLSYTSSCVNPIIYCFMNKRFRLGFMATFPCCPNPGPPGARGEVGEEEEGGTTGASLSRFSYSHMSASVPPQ

[2] = molecular target: T2, Alpha-2C adrenergic receptor (Homo sapiens, UniProt P18825); experiment: DRUGMATRIX: Adrenergic Alpha-2C radioligand binding (ligand: [3H] MK-912); assay type: cell membranes, Sf9, Membrane
T2 sequence (P18825 whole entry): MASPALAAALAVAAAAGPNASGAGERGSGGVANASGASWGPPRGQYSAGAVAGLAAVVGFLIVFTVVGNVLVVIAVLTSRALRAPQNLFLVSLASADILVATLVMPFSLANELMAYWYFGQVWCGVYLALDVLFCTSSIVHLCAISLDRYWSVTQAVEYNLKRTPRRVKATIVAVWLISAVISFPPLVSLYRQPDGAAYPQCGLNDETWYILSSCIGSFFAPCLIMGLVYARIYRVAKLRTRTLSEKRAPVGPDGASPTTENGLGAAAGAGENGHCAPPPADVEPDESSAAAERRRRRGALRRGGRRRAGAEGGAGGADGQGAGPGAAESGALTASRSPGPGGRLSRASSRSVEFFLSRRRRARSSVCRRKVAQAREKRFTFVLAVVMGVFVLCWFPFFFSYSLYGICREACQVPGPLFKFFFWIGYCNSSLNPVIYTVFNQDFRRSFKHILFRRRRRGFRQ

[3] = DRUGMATRIX: Phosphodiesterase PDE4 enzyme inhibition (substrate: [3H]cAMP + cAMP); details: u-937; Not Active = under 50% inhibition at 10 µM
D(3) dopamine receptor = D(3) dopamine receptor (Homo sapiens, UniProt P35462); experiment: DRUGMATRIX: Dopamine D3 radioligand binding (ligand: [3H] Spiperone); assay type: cell membranes, CHO, Membrane
Sequence of D(3) dopamine receptor (P35462 whole entry): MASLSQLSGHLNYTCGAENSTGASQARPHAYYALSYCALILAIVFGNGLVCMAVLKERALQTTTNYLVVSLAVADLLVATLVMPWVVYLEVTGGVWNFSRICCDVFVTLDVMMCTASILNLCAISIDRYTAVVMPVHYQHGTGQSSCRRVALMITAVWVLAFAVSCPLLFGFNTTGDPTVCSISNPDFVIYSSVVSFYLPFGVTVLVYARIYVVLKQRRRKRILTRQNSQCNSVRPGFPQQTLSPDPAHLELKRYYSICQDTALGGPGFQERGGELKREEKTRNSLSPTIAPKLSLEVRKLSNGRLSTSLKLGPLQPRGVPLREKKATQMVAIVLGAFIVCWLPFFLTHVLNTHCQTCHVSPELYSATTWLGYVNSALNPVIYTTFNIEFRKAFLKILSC

[4] = DRUGMATRIX: Glutamate, NMDA, Agonism radioligand binding (ligand: [3H] CGP-39653); assay type: cell membranes, Rattus norvegicus, Wistar, Cerebral cortex, Membrane; details: Not Active = under 50% inhibition at 10 µM
Estrogen receptor beta = Estrogen receptor beta (Homo sapiens, UniProt Q92731); details: sf9; also: in other assays of this panel Not Active means under 50% inhibition at 10 µM
Sequence of Estrogen receptor beta (Q92731 whole entry): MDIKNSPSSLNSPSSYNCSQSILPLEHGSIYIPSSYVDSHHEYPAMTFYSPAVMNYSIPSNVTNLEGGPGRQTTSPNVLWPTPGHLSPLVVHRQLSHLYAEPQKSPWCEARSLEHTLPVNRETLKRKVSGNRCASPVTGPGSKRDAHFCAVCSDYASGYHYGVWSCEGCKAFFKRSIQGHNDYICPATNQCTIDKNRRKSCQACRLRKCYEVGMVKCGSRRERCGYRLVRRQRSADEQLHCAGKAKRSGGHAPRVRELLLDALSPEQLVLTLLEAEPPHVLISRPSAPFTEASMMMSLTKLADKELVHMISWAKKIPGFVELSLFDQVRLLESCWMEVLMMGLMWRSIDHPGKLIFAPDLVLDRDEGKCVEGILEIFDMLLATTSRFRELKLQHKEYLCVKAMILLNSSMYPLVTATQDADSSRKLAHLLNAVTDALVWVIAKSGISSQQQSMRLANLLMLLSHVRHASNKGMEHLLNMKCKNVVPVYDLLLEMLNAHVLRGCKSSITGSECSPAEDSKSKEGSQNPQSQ

Cytochrome P450 2C19 = Cytochrome P450 2C19 (Homo sapiens, UniProt P33261); details: bti-tn-5b1-4; also: in other assays of this panel Not Active means under 50% inhibition at 10 µM
Sequence of Cytochrome P450 2C19 (P33261 whole entry): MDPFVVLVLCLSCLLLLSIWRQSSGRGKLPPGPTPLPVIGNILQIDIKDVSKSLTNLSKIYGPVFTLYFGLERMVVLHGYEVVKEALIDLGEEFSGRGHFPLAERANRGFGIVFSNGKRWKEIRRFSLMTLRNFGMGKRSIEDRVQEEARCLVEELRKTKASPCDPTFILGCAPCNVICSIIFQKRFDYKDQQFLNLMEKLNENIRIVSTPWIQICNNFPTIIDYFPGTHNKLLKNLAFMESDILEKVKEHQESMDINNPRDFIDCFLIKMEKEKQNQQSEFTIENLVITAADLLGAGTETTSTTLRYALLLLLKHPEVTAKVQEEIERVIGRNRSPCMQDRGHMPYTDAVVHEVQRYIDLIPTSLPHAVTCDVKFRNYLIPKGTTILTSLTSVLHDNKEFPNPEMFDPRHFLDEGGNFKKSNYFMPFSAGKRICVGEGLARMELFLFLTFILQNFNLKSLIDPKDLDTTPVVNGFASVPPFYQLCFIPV

| Compound | IC50 [1] | IC50 ([2]; sf9) | IC50 [3] | Ki [3] | IC50 (D(3) dopamine receptor; cho) | IC50 [4] | Ki [4] | IC50 (Estrogen receptor beta) | IC50 (Cytochrome P450 2C19) | Ki (Cytochrome P450 2C19) | IC50 ([2]; read-out: IC50) [nM] | Ki ([2]; read-out: Ki) [nM] | IC50 (D(3) dopamine receptor; read-out: IC50) [nM] | Ki (D(3) dopamine receptor; read-out: Ki) [nM] | Ki [1] | Ki ([2]; sf9) | Ki (D(3) dopamine receptor; cho) | Ki (Estrogen receptor beta) |
| --- | --- | --- | --- | --- | --- | --- | --- | --- | --- | --- | --- | --- | --- | --- | --- | --- | --- | --- |
| C[C@@H]1CN(c2c(F)c(N)c3c(=O)c(C(=O)O)cn(C4CC4)c3c2F)C[C@H](C)N1 [SPARFLOXACIN] | Not Active | Not Active | Not Active | Not Active | Not Active | Not Active | Not Active | Not Active | Not Active | Not Active |  |  |  |  |  |  |  |  |
| Cc1noc(NS(=O)(=O)c2ccc(N)cc2)c1C [SULFISOXAZOLE] | Not Active | Not Active | Not Active | Not Active | Not Active | Not Active | Not Active | Not Active | Not Active | Not Active |  |  |  |  |  |  |  |  |
| CSc1ccc(/C=C2/C(C)=C(CC(=O)O)c3cc(F)ccc32)cc1 [SULINDAC SULFIDE] | Not Active | Not Active | Not Active | Not Active | Not Active | Not Active | Not Active | Not Active | Not Active | Not Active |  |  |  |  |  |  |  |  |
| Nc1c2c(nc3ccccc13)CCCC2 [TACRINE] | Not Active | Not Active | Not Active | Not Active | Not Active | Not Active | Not Active | Not Active | Not Active | Not Active |  |  |  |  |  |  |  |  |
| CC(C)N1CCN(c2ccc(OCC3COC(Cn4cncn4)(c4ccc(Cl)cc4Cl)O3)cc2)CC1 (stereo unspecified) [TERCONAZOLE] | Not Active |  | Not Active | Not Active |  | Not Active | Not Active | Not Active | Not Active | Not Active | 418 | 61 | 4710 | 1600 |  |  |  |  |
| Nc1nc2nc[nH]c2c(=S)[nH]1 [THIOGUANINE] | Not Active | Not Active | Not Active | Not Active | Not Active | Not Active | Not Active | Not Active | Not Active | Not Active |  |  |  |  |  |  |  |  |
| NC[C@H]1CC[C@H](C(=O)O)CC1 [TRANEXAMIC ACID] | Not Active | Not Active | Not Active | Not Active | Not Active | Not Active | Not Active | Not Active | Not Active | Not Active |  |  |  |  |  |  |  |  |
| CC1(C)O[C@@H]2C[C@H]3[C@@H]4CCC5=CC(=O)C=C[C@]5(C)[C@@]4(F)[C@@H](O)C[C@]3(C)[C@]2(C(=O)CO)O1 [TRIAMCINOLONE ACETONIDE] | Not Active | Not Active | Not Active | Not Active | Not Active | Not Active | Not Active | Not Active | Not Active | Not Active |  |  |  |  |  |  |  |  |
| NS(=O)(=O)c1cc2c(cc1Cl)NC(C(Cl)Cl)NS2(=O)=O (stereo unspecified) [TRICHLORMETHIAZIDE] | Not Active | Not Active | Not Active | Not Active | Not Active | Not Active | Not Active | Not Active | Not Active | Not Active |  |  |  |  |  |  |  |  |
| Cc1c(C)c2c(c(C)c1O)CCC(C)(COc1ccc(CC3SC(=O)NC3=O)cc1)O2 (stereo unspecified) [TROGLITAZONE] | Not Active | Not Active | Not Active | Not Active | Not Active | Not Active | Not Active | Not Active | Not Active | Not Active |  |  |  |  |  |  |  |  |
| N[C@@H]1[C@H]2CN(c3nc4c(cc3F)c(=O)c(C(=O)O)cn4-c3ccc(F)cc3F)C[C@@H]12 [TROVAFLOXACIN] | Not Active | Not Active | Not Active | Not Active | Not Active | Not Active | Not Active | Not Active | Not Active | Not Active |  |  |  |  |  |  |  |  |
| N#CC(C#N)=Cc1ccc(O)c(O)c1 [TYRPHOSTIN 23] | Not Active | Not Active | Not Active | Not Active | Not Active | Not Active | Not Active | Not Active | Not Active | Not Active |  |  |  |  |  |  |  |  |
| CCCOc1ccccc1-c1nc2nn[nH]c2c(=O)[nH]1 [ZAPRINAST] | Not Active | Not Active | Not Active | Not Active | Not Active | Not Active | Not Active | Not Active | Not Active | Not Active |  |  |  |  |  |  |  |  |
| SODIUM NITROPRUSSIDE | Not Active | Not Active | Not Active | Not Active | Not Active | Not Active | Not Active | Not Active | Not Active | Not Active |  |  |  |  | Not Active | Not Active | Not Active | Not Active |
